In US20090215752A1, “Compounds, preparation and therapeutic use thereof” (priority 2005, published 2009):

Columns and labels:
[1] = tested on: PDE1; assay: Selectivity: inhibition of PDE1 (radioenzymatic assay); type: biochemical, bovine; conditions: Table 2
Protocol: 2.1.1. Isolation of Phosphodiesterases from Smooth Muscle A 3 g segment of bovine aortic media cut into pieces with scissors was homogenized with an ultra-turrax then a potter glass/glass homogenizer in 7 volumes by weight of buffer A containing a protease inhibitor cocktail (20 mM Tris-HCl, 0.25 M saccharose, 2 mM magnesium acetate, 1 mM dithiothreitol, 5 mM EGTA, 2000 U/ml aprotinin, 10 mg/l leupeptin and 10 mg/l soya trypsic inhibitor). The homogenizate was centrifuged at 105,000 g for 1 hour. The supernatant was loaded on a DEAE-Sephacel column (15×1.6 cm) pre-equilibrated with buffer B (buffer A without the saccharose, EGTA and protease inhibitors). The column was washed until there was no detectable absorption at 280 nm, then eluted with a linear gradient of NaCl (0-0.5 M) in buffer B. 3-ml fractions were collected and enzyme activity was determined under the conditions described hereinbelow to localize the different enzymes PDE1, PDE3, PDE4 and PDE5 which were aliquoted and frozen at −80° C. (Lugnier et al., Biochem. Phamacol., 1986, 35: 1746-1751). […]
Cyclic nucleotide phosphodiesterase activity was determined by a radioenzymatic method using tritium-labelled cyclic GMP or AMP (1 μM) as substrate (Lugnier et al., 1986). ^3H-labelled adenosine or guanosine monophosphate formed by hydrolysis of the radiolabelled cyclic nucleotide was then converted to ^3H-labelled adenosine or guanosine in a second reaction with one nucleotidase in excess. […] Nucleoside radioactivity was determined by liquid scintillation counting. […]
The activity of the compounds was evaluated on other phosphodiesterase isoforms, particularly basal state or calmodulin-activated PDE1 from vascular smooth muscle, PDE3, PDE4 and PDE5 from vascular smooth muscle. The results obtained are presented in Tables 1 and 2 hereinbelow and are expressed as the percentage inhibition of enzymatic activity produced by […] of the test compound.

[2] = biological target: T1, sigma 2 receptors (Rattus norvegicus, UniProt Q5U3Y7); assay: Sigma 2 receptor binding ([3H]DTG + (+)pentazocine); conditions: [3H]DTG 5 nM + 300 nM (+)pentazocine, rat cerebral cortex, read-out: σ2 percentage inhibition at 10 μM
T1 construct: The sigma 2 receptors were isolated from rat cerebral cortex; from tissue; host or cells: rat cerebral cortex
T1 sequence (Q5U3Y7 1-176): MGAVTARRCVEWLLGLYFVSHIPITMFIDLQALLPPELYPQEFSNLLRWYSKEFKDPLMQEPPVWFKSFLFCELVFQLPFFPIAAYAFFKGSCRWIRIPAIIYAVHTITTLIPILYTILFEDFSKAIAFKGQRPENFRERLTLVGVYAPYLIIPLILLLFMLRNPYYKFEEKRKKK
Protocol: (§1) The sigma 1 receptors were isolated from guinea pig cerebral cortex according to the method described in Bowen et al., 1993.
(§2) Sigma 1 receptor binding was determined by a radioligand method using tritium-labelled (+)pentazocine (2 nM) as substrate (Bowen et al., 1993). Sigma 2 receptor binding was determined by a radioligand method using tritium-labelled DTG (+300 nM (+)pentazocine) (5 nM) as substrate (Bowen et al., 1993). Ligand radioactivity was determined by liquid scintillation counting. For sigma 1 binding evaluation, ligand incubations were carried out for one hundred fifty minutes at 22° C. For sigma 2 binding evaluation, ligand incubations were carried out for one hundred twenty minutes at 22° C. The experiments were conducted in duplicate.
(§3) The specific ligand binding to the sigma receptors was defined as the difference between the total binding and the non specific binding determined in presence of an excess of unlabelled ligand. The results obtained are presented in Table 4 hereinbelow and are expressed as percent of control specific binding and as a percent inhibition of control specific binding obtained in presence of 10 μM of substance.

[3] = biological target: T2, sigma 1 receptors (Cavia porcellus, UniProt Q60492); assay: Sigma 1 receptor binding ([3H](+)pentazocine); conditions: [3H](+)pentazocine 2 nM, guinea pig cerebral cortex, read-out: σ1 percentage inhibition at 10 μM
T2 construct: The sigma 1 receptors were isolated from guinea pig cerebral cortex; from tissue; host or cells: guinea pig cerebral cortex
T2 sequence (Q60492 whole entry): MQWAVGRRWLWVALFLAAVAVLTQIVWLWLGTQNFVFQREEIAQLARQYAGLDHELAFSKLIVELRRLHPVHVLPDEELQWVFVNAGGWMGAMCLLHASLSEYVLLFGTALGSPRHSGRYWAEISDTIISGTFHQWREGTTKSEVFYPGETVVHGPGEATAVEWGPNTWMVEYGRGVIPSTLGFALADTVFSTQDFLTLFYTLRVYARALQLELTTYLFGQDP
Protocol: as §1, §2, §3

[4] = tested on: σ receptors; assay: Isolated organ bioassay, field-stimulated vas deferens: test for antagonist activity; parameters: species or system guinea pig; conditions: mean, n=2
Protocol: Segments of guinea pig vas deferens were suspended in 20-ml organ baths containing an oxygenated (95% O2 and 5% CO2) and pre-warmed (37° C.) physiological salt solution of the following composition (in mM): NaCl 118.0, KCl 4.7, MgSO4 1.2, CaCl2 2.5, KH2PO4 1.2, NaHCO3 25.0 and glucose 11.0 (pH 7.4). Yohimbine (1 μM), (−) sulpiride (1 μM), atropine (1 μM) and naloxone (1 μM) were also present throughout the experiments to block the α2-adrenergic, dopamine D2, muscarinic and opioid receptors, respectively. The tissues were connected to force transducers for isometric tension recordings. They were stretched to a resting tension of 0.5 g, allowed to equilibrate for at least 30 min during which time they were washed repeatedly and the tension readjusted. Thereafter, they were stimulated electrically using a constant current stimulator.
The tissues were exposed to a submaximal concentration of the reference agonist (+) SKF-10047 (100 μM) to obtain a control response. After stabilization of the (+) SKF-10047-induced response, increasing concentrations of substance or the reference antagonist rimcazole were added cumulatively. Each concentration was left in contact with the tissues until a stable response was obtained or for a maximum of 15 min. If it occurred, an inhibition of the (+) SKF-10047-induced increase in twitch contraction amplitude by substance indicated an antagonist activity at the σ receptors.
The parameter measured was the maximum change in the twitch contraction amplitude induced by each compound concentration. The results are expressed as a percent variation of the control twitch contraction amplitude (mean values). The effects of substance tested at 1.0 10^−6 M, 3.0 10^−6 M and 1.0 10^−5 M for agonist and antagonist activities at the σ receptors in the guinea pig vas deferens bioassay are summarized in Tables 6-7 where those of the reference compounds are also reported.

COc1cc2c(c(OC)c1-c1ccccc1)C(c1cccc(C(N)=O)c1)=NCC(=O)N2C [Compound 17, 3-(6,8-Dimethoxy-1-methyl-2-oxo-7-phenyl-2,3-dihydro-1H-benzo[e][1,4]diazepin-5-yl)-benzamide]
PDE1 percentage inhibition at 10 μM ([1]; 10 μM compound): 22% | IC50 ([1]; value in square brackets): 37 µM | inhibition at 10 µM [2]: 93% | inhibition at 10 µM [3]: 93% | Response to (+)SKF-10,047 (1.0 10^−4 M) in the presence of the compound ([4]; compound 1.0 10^−5 M): +169% | Response to (+)SKF-10,047 (1.0 10^−4 M) in the presence of the compound ([4]; compound 1.0 10^−6 M): +139% | Response to (+)SKF-10,047 (1.0 10^−4 M) in the presence of the compound ([4]; compound 3.0 10^−6 M): +139%
